# What was measured:
# Sialidase A = Sialidase A (Streptococcus pneumoniae, UniProt P62575); test: Inhibition of Streptococcus pneumoniae NanA using Neu5Acalpha2-3GalbetapNP as substrate after 30 mins by colorimetric assay
# Sialidase B = target: T1, Sialidase B (Streptococcus pneumoniae serotype 4 (strain ATCC BAA-334 / TIGR4), UniProt Q54727); test: Inhibition of Streptococcus pneumoniae NanB using Neu5Acalpha2-3GalbetapNP as substrate after 30 mins by colorimetric assay
# T1 sequence (Q54727 whole entry): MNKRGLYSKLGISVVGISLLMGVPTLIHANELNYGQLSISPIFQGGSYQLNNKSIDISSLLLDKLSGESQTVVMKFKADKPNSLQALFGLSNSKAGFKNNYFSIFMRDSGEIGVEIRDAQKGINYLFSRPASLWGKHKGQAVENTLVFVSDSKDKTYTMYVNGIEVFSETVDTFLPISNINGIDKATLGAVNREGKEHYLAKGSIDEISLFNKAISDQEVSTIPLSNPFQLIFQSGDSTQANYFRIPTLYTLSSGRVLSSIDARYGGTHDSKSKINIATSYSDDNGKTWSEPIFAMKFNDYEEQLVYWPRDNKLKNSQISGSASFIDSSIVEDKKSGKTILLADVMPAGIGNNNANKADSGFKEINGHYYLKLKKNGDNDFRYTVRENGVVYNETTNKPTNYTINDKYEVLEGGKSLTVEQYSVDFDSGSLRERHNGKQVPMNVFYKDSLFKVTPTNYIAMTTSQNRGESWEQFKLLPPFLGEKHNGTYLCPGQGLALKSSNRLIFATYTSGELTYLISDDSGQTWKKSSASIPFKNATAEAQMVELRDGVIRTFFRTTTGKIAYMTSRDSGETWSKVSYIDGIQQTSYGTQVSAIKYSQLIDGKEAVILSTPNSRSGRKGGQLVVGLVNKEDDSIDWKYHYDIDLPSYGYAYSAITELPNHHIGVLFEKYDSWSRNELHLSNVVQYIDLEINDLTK
# Neuraminidase C = target: T2, Neuraminidase C (Streptococcus pneumoniae, UniProt A0A0B7LH44); test: Inhibition of Streptococcus pneumoniae sialidase NanC using Neu5Acalpha2-3GalbetapNP as substrate after 30 mins by colorimetric assay
# T2 sequence (A0A0B7LH44 whole entry): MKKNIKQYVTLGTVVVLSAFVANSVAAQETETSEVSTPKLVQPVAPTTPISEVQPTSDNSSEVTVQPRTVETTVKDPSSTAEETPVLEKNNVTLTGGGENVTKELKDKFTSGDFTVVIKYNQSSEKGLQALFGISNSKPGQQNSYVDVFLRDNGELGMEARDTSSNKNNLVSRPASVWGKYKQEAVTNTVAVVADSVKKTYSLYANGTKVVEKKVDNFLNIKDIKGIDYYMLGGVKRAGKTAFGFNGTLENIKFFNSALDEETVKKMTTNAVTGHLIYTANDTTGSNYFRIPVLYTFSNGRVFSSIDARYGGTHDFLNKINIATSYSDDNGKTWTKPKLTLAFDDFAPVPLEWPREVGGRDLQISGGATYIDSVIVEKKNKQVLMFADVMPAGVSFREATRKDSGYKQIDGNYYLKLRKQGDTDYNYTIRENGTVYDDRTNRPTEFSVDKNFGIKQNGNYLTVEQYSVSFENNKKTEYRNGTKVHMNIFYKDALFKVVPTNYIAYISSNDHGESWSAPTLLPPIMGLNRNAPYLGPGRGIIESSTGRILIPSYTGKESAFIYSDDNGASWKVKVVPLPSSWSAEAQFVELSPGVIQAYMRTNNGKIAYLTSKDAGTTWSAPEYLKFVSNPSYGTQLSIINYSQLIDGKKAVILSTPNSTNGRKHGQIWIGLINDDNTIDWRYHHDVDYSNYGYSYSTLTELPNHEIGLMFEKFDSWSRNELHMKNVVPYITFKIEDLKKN
# Sialidase = Sialidase (Vibrio cholerae serotype O1 (strain ATCC 39315 / El Tor Inaba N16961), UniProt P0C6E9); test: Inhibition of Vibrio cholerae sialidase using Neu5Acalpha2-3GalbetapNP as substrate after 30 mins by colorimetric assay
# Sialidase, sequence (P0C6E9 whole entry, one chain of several): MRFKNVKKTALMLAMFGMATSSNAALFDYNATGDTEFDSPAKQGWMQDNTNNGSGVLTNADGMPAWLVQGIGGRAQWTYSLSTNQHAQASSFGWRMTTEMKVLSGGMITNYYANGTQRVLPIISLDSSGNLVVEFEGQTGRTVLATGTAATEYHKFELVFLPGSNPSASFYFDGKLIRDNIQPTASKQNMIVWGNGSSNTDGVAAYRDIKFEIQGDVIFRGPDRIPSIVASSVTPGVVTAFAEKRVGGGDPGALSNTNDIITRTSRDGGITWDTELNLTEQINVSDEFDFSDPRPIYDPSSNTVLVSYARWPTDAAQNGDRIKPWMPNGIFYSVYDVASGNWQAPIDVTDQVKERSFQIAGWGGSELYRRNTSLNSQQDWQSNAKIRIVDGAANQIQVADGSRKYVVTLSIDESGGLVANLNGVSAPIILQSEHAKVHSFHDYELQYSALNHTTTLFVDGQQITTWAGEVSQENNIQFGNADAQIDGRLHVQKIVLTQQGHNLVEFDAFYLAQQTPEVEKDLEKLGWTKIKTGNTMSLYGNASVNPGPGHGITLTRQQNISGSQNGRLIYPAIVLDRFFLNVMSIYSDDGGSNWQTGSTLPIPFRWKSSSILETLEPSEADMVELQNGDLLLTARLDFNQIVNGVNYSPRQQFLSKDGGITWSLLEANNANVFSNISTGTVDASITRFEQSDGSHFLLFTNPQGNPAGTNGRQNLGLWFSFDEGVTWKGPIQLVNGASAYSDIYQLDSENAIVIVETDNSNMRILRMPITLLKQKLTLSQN
# [1] = Inhibition of Bifidobacterium longum subsp. infantis ATCC 15697 sialidase 2 (BiNanH2) using Neu5Acalpha2-3GalbetapNP as substrate after 30 mins by colorimetric assay
# [2] = Inhibition of Pasteurella multocida sialyltransferase 1 using Neu5Acalpha2-3GalbetapNP as substrate after 30 mins by colorimetric assay
# [3] = target: Sialidase A (Streptococcus pneumoniae) (UniProt P62575); conditions: at 1 mM
# Sialidase A (Streptococcus pneumoniae), sequence (P62575 whole entry): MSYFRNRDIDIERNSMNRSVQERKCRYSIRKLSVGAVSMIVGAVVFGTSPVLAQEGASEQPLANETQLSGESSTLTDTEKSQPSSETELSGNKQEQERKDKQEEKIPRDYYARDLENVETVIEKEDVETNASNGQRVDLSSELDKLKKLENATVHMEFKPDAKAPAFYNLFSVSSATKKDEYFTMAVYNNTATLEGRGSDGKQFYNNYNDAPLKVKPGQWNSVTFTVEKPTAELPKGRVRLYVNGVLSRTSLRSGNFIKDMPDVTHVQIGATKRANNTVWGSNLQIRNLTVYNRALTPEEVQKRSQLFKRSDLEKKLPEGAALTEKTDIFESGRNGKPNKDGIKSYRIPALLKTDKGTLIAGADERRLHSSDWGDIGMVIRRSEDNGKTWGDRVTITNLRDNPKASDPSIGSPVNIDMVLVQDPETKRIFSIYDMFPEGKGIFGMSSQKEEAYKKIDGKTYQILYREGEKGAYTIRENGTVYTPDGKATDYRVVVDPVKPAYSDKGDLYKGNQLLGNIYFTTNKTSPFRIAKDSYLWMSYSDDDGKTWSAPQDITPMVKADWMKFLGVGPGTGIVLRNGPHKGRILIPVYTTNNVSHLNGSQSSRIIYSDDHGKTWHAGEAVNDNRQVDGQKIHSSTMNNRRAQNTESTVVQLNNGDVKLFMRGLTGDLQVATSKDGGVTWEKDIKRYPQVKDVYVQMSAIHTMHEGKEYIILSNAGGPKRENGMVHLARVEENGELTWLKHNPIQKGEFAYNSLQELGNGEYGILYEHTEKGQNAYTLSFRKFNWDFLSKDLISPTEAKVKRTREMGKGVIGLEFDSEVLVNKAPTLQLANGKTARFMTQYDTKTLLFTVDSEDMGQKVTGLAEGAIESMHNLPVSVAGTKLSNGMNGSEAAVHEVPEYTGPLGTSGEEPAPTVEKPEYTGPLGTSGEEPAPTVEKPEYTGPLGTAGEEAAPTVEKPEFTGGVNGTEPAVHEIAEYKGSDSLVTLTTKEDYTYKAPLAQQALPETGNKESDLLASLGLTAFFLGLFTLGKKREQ
# [4] = target: T3, Sialidase B (Streptococcus pneumoniae serotype 4 (strain ATCC BAA-334 / TIGR4)) (UniProt Q54727); conditions: at 1 mM
# T3 sequence (whole entry): T1 sequence (Q54727 whole entry)
# [5] = target: T4, Neuraminidase C (Streptococcus pneumoniae) (UniProt A0A0B7LH44); conditions: at 1 mM
# T4 sequence (whole entry): T2 sequence (A0A0B7LH44 whole entry)
# [6] = target: Sialidase (Vibrio cholerae serotype O1 (strain ATCC 39315 / El Tor Inaba N16961)) (UniProt P0C6E9); conditions: at 1 mM
# Sialidase (Vibrio cholerae serotype O1 (strain ATCC 39315 / El Tor Inaba N16961)), sequence (P0C6E9 whole entry, one chain of several): as the sequence (P0C6E9 whole entry, one chain of several) above
# [7] = tested on: Paenarthrobacter ureafaciens; conditions: at 1 mM
# [8] = target: T5, Sialidase (Clostridium perfringens) (UniProt P10481); conditions: at 1 mM
# T5 sequence (whole entry): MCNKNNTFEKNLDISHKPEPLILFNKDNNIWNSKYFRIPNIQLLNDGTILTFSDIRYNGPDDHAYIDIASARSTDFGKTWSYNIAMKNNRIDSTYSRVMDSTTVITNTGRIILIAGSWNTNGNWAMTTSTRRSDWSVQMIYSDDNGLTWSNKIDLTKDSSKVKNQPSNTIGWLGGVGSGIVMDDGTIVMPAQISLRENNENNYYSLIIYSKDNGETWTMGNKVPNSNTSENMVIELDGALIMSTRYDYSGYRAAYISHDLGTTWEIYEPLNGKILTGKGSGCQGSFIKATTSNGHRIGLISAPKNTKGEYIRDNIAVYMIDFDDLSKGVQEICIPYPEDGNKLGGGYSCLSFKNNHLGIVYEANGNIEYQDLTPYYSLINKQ
# [9] = tested on: Bifidobacterium longum subsp. infantis; conditions: ATCC 15697, at 1 mM
# Pasteurella multocida [10] = conditions: at 1 mM
# [11] = target: Sialidase A (Streptococcus pneumoniae) (UniProt P62575); conditions: at 0.1 mM
# [12] = target: T3, Sialidase B (Streptococcus pneumoniae serotype 4 (strain ATCC BAA-334 / TIGR4)); conditions: at 0.1 mM
# [13] = target: T4, Neuraminidase C (Streptococcus pneumoniae); conditions: at 0.1 mM
# [14] = target: Sialidase (Vibrio cholerae serotype O1 (strain ATCC 39315 / El Tor Inaba N16961)) (UniProt P0C6E9); conditions: at 0.1 mM
# [15] = tested on: Paenarthrobacter ureafaciens; conditions: at 0.1 mM
# [16] = target: T5, Sialidase (Clostridium perfringens); conditions: at 0.1 mM
# [17] = tested on: Bifidobacterium longum subsp. infantis; conditions: ATCC 15697, at 0.1 mM
# Pasteurella multocida [18] = conditions: at 0.1 mM
# [19] = Inhibition of Arthrobacter ureafaciens sialidase using Neu5Acalpha2-3GalbetapNP as substrate after 30 mins by colorimetric assay; set-up: species or system Paenarthrobacter ureafaciens
# Sialidase A, sequence (P62575 whole entry): as the sequence (P62575 whole entry) above
compound,measurement,setting,value
CC(=O)N[C@H]1[C@H]([C@H](O)[C@H](O)Cn2cc(C[C@H](N)C(=O)O)nn2)OC(C(=O)O)=C[C@@H]1O,IC50,Sialidase A,100 to 1000 µM
same,IC50,Sialidase B,> 1000 µM
same,IC50,Neuraminidase C,> 1000 µM
same,IC50,Sialidase,13.5 µM
same,IC50,[1],> 1000 µM
same,IC50,[2],> 1000 µM
same,inhibition,[3],84.4%
same,inhibition,[4],35.5%
same,inhibition,[5],47.8%
same,inhibition,[6],93.2%
same,inhibition,[7],85.6%
same,inhibition,[8],69.7%
same,inhibition,[9],14.7%
same,inhibition,Pasteurella multocida [10],9.1%
same,inhibition,[11],42.9%
same,inhibition,[12],8.8%
same,inhibition,[13],15.3%
same,inhibition,[14],82%
same,inhibition,[15],42.1%
same,inhibition,[16],17.6%
same,inhibition,[17],0%
same,inhibition,Pasteurella multocida [18],2.8%
CC(=O)N[C@H]1[C@H]([C@H](O)[C@H](O)Cn2cc(C[C@H](NC(=O)[C@@H](N)CCC(=O)O)C(=O)N[C@@H](CCCCN)C(=O)N[C@@H](CCC(=O)O)C(N)=O)nn2)OC(C(=O)O)=C[C@@H]1O,IC50,Neuraminidase C,> 1000 µM
same,IC50,[1],> 1000 µM
same,IC50,[2],> 1000 µM
same,inhibition,[5],9.8%
CC(=O)N[C@H]1[C@H]([C@H](O)[C@H](O)CN=[N+]=[N-])OC(C(=O)O)=C[C@@H]1O,IC50,Sialidase A,44.3 µM
same,IC50,Sialidase B,> 1000 µM
same,IC50,Neuraminidase C,> 1000 µM
same,IC50,Sialidase,20 µM
same,IC50,[19],0.72 µM
same,IC50,[1],100 to 1000 µM
same,IC50,[2],> 1000 µM
same,inhibition,[3],98.8%
same,inhibition,[4],35.2%
same,inhibition,[5],39.2%
same,inhibition,[6],95.6%
same,inhibition,[7],99.5%
same,inhibition,[8],89.3%
same,inhibition,[9],86.7%
same,inhibition,Pasteurella multocida [10],14.9%
same,inhibition,[11],78.6%
same,inhibition,[12],6.6%
same,inhibition,[13],13.4%
same,inhibition,[14],86%
same,inhibition,[15],99.2%
same,inhibition,[16],57.1%
same,inhibition,[17],49.4%
same,inhibition,Pasteurella multocida [18],1.7%
CC(=O)N[C@H]1[C@H]([C@H](O)[C@H](O)CO)OC(C(=O)O)=C[C@@H]1O [NEU5AC2EN],IC50,Neuraminidase C,> 1000 µM
same,IC50,[19],8.1 µM
same,IC50,[2],> 1000 µM
same,inhibition,[3],99.9%
same,inhibition,[4],31.9%
same,inhibition,[5],23.7%
same,inhibition,[6],94.5%
same,inhibition,[7],99%
same,inhibition,[8],92.6%
same,inhibition,Pasteurella multocida [10],9.3%
same,inhibition,[11],94.9%
same,inhibition,[12],2.7%
same,inhibition,[13],6.3%
same,inhibition,[14],88.2%
same,inhibition,[15],95.8%
same,inhibition,[16],72.1%
same,inhibition,Pasteurella multocida [18],2.1%
CC(=O)N[C@H]1[C@H]([C@H](O)[C@H](O)Cn2cc(C[C@H](N)C(=O)N[C@H](CCC(=O)O)C(N)=O)nn2)OC(C(=O)O)=C[C@@H]1O,IC50,Sialidase A,65.6 µM
same,IC50,Sialidase B,> 1000 µM
same,IC50,Neuraminidase C,> 1000 µM
same,IC50,Sialidase,10.9 µM
same,IC50,[19],1.87 µM
same,IC50,[2],> 1000 µM
same,inhibition,[3],94.7%
same,inhibition,[4],39%
same,inhibition,[5],29.7%
same,inhibition,[6],93.5%
same,inhibition,[7],96.2%
same,inhibition,[8],84.6%
same,inhibition,[9],76.4%
same,inhibition,Pasteurella multocida [10],6%
same,inhibition,[11],61.9%
same,inhibition,[12],12.6%
same,inhibition,[13],13.5%
same,inhibition,[14],85.8%
same,inhibition,[15],95.7%
same,inhibition,[16],48.9%
same,inhibition,[17],3.3%
same,inhibition,Pasteurella multocida [18],0.1%

# Source: ChEMBL document CHEMBL4261630
